In patent US5075335A, “Guanidinobenzoic ester derivative” (Eisai Co., Ltd., priority 1985, dated 1991):

Legend:
Assay type in all cases: biochemical
trypsin = assay: Trypsin inhibition in vitro (hydrolysis of benzoyl-D,L-arginine-p-nitroanilide hydrochloride); settings: 0.5 μg/ml of trypsin, 25° C, read-out: 50% Inhibitory concentration (IC50) Trypsin
Method: (§1) The effects of typical compounds of the present invention in inhibiting trypsin, plasmin and thrombin in vitro were examined. The trypsin-inhibiting effect was represented in terms of a molar concentration of the compound which inhibits the activity of 0.5 μg/ml of trypsin to hydrolyze benzoyl-D,L-arginine-p-nitroanilide hydrochloride by 50% at 25° C. In the determination of the plasmin- and thrombin-inhibiting effects, 50% inhibitory concentrations were determined by using H-D-Val-Leu-L-Lys-p-nitroanilide dihydrochloride and H-D-Phe-L-pipecolyl-L-Arg-p-nitroanilide dihydrochloride, respectively, as the substrate.

plasmin = plasmin (Homo sapiens, UniProt P00747); assay: Plasmin inhibition in vitro (substrate H-D-Val-Leu-L-Lys-p-nitroanilide dihydrochloride); settings: read-out: 50% Inhibitory concentration (IC50) Plasmin
plasmin, sequence (P00747 581-810 limits assumed, species assumed): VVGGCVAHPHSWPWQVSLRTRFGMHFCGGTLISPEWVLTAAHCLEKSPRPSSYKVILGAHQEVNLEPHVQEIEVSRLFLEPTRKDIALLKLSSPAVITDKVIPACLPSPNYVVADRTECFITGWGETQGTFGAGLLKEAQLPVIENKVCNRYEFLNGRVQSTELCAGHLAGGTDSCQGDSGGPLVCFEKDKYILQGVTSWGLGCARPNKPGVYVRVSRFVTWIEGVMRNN
plasmin, sequence (P00747 97-580 partner limits assumed, species assumed): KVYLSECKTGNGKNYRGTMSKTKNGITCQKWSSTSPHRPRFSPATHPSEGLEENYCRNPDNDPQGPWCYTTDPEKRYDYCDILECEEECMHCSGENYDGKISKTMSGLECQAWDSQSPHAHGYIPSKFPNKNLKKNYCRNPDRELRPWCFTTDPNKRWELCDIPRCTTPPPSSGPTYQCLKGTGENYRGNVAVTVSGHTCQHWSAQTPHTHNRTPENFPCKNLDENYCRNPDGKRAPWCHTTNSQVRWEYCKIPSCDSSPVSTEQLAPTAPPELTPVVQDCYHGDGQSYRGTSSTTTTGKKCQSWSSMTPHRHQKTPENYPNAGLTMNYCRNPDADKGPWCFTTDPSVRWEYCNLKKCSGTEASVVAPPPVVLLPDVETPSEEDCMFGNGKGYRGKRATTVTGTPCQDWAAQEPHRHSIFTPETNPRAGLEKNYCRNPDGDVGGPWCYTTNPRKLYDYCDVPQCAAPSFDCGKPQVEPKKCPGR
Method: as §1

thrombin = thrombin (Homo sapiens, UniProt P00734); assay: Thrombin inhibition in vitro (substrate H-D-Phe-L-pipecolyl-L-Arg-p-nitroanilide dihydrochloride); settings: read-out: 50% Inhibitory concentration (IC50) Thrombin
Method: as §1

In the case of `N=C(N)Nc1ccc(C(=O)Oc2ccc(SCCO)cc2)cc1` [A, 4-(2-hydroxyethylthio)phenyl 4-guanidinobenzoate methanesulfonate], the IC50 (trypsin) is reported as 43 nM, the IC50 (plasmin) is reported as 1300 nM and the IC50 (thrombin) is reported as 250 nM.
`N=C(N)Nc1ccc(C(=O)Oc2ccc(SCCN3C(=O)CCC3=O)cc2)cc1` [B, 4-(2-succinimidoethylthio)phenyl 4-guanidinobenzoate methanesulfonate] gave an IC50 (trypsin) of 47 nM, an IC50 (plasmin) of 950 nM and an IC50 (thrombin) of 530 nM.
Compound `CCOCCSc1ccc(OC(=O)c2ccc(NC(=N)N)cc2)cc1` [C, 4-(2-ethoxyethylthio)phenyl 4-guanidinobenzoate methanesulfonate] has an IC50 (trypsin) of 45 nM, an IC50 (plasmin) of 2200 nM and an IC50 (thrombin) of 350 nM.
`N=C(N)Nc1ccc(C(=O)Oc2ccc(SCCCN3C(=O)CCC3=O)cc2)cc1` [D, 4-(3-succinimidopropylthio)phenyl 4-guanidinobenzoate methanesulfonate] showed an IC50 (trypsin) of 59 nM, an IC50 (plasmin) of 1300 nM and an IC50 (thrombin) of 420 nM.
Compound `N=C(N)Nc1ccc(C(=O)Oc2ccc(SCCCCN3C(=O)CCC3=O)cc2)cc1` [E, 4-(4-succinimidobutylthio)phenyl 4-guanidinobenzoate methanesulfonate] has an IC50 (trypsin) of 22 nM, an IC50 (plasmin) of 2300 nM and an IC50 (thrombin) of 570 nM.
`N=C(N)Nc1ccc(C(=O)Oc2ccc(SCCCCCN3C(=O)CCC3=O)cc2)cc1` [F, 4-(5-succinimidopentylthio)phenyl 4-guanidinobenzoate methanesulfonate] gave an IC50 (trypsin) of 34 nM, an IC50 (plasmin) of 640 nM and an IC50 (thrombin) of 270 nM.
Compound `N=C(N)Nc1ccc(C(=O)Oc2ccc(SCCN3C(=O)[C@H]4CCCC[C@H]4C3=O)cc2)cc1` [G, 4-[2-(cis-1,2-cyclohexanedicarboxyimido)-ethylthio]phenyl 4-guanidinobenzoate methanesulfonate] has an IC50 (trypsin) of 62 nM, an IC50 (plasmin) of 1000 nM and an IC50 (thrombin) of 160 nM.
`N=C(N)Nc1ccc(C(=O)Oc2ccc(SCCN3C(=O)c4ccccc4C3=O)cc2)cc1` [H, 4-(2-phthalimidoethylthio)phenyl 4-guanidinobenzoate methanesulfonate] was tested, and the IC50 (trypsin) was 30 nM, the IC50 (plasmin) was 920 nM and the IC50 (thrombin) was 110 nM.
Compound `CC1(C)OC(=O)N(CCSc2ccc(OC(=O)c3ccc(NC(=N)N)cc3)cc2)C1=O` [I, 4-[2-(5,5-dimethyl-2,4-dioxooxazolidin-3-yl)ethylthio]phenyl 4-guanidinobenzoate methanesulfonate] has an IC50 (trypsin) of 55 nM, an IC50 (plasmin) of 830 nM and an IC50 (thrombin) of 320 nM.
